In ChEMBL document CHEMBL3351452, “Chemical synthesis, cytotoxicity, selectivity and bioavailability of 5α-androstane-3α,17β-diol derivatives” (Bioorg Med Chem, 2014):

Tests used:
MCF7 = experiment: Antiproliferative activity against human MCF7 cells assessed as reduction in cell growth after 24 hrs by MTS assay; assay type: functional, cell-based; conditions: MCF7, 24 h
HL-60 = experiment: Antiproliferative activity against human HL-60 cells assessed as reduction in cell growth after 24 hrs by MTS assay; assay type: functional, cell-based; conditions: HL-60, 24 h
[1] = Cytotoxicity against mouse WEHI13 cells assessed as cell proliferation after 48 hrs by MTT assay; assay type: cell-based; conditions: WEHI13, 48 h
T47D = experiment: Antiproliferative activity against human T47D cells assessed as reduction in cell growth after 24 hrs by MTS assay; assay type: functional, cell-based
[2] = Plasma concentration in Sprague-Dawley rat at 2.3 mg/kg, sc measured at 12 hrs by LC/MS/MS analysis; assay type: ADME, organism-based; parameters: dose 2.3 mg/kg, route subcutaneous
LNCaP = experiment: Antiproliferative activity against human LNCAP cells assessed as reduction in cell growth after 24 hrs by MTS assay; assay type: functional, cell-based
[3] = Plasma concentration in Sprague-Dawley rat at 2.3 mg/kg, sc measured at 3 hrs by LC/MS/MS analysis; assay type: ADME, organism-based; parameters: dose 2.3 mg/kg, route subcutaneous

SMILES | IC50 (MCF7) [nM] | IC50 (HL-60) [nM] | IC50 [1] [nM] | IC50 (T47D) [nM] | concentration at 12 h [2] [ng/mL] | IC50 (LNCaP) [nM] | concentration at 3 h [3] [ng/mL]
C[C@]12C[C@H](N3CCN(C(=O)[C@@H]4CCCN4C(=O)c4ccc5ccccc5c4)CC3)[C@@H](O)C[C@@H]1CC[C@@H]1[C@@H]2CC[C@]2(C)[C@@H](O)CC[C@@H]12 | 500 | 400 | > 10000 | 400 | 8.8 | 1600 | 64.8
C#C[C@]1(O)CC[C@H]2[C@@H]3CC[C@H]4C[C@H](O)[C@@H](N5CCN(C(=O)[C@@H]6CCCN6C(=O)c6ccc7ccccc7c6)CC5)C[C@]4(C)[C@H]3CC[C@@]21C | 300 | 1900 | 1700 | 300 | 50.2 | 4500 | 185
C[C@]12C[C@H](N3CCN(C(=O)[C@@H]4CCCN4C(=O)c4ccc5ccccc5n4)CC3)[C@@H](O)C[C@@H]1CC[C@@H]1[C@@H]2CC[C@]2(C)[C@@H](O)CC[C@@H]12 | 100 | 1600 | – | 100 | 3.1 | 40 | 163
C[C@]12C[C@H](N3CCN(C(=O)[C@@H]4CCCN4C(=O)c4ccc5ncccc5c4)CC3)[C@@H](O)C[C@@H]1CC[C@@H]1[C@@H]2CC[C@]2(C)[C@@H](O)CC[C@@H]12 | 4900 | 4700 | – | 7000 | 1.3 | > 10000 | 194
C[C@]12C[C@H](N3CCN(C(=O)[C@@H]4CCCN4C(=O)c4cc5ccccc5cn4)CC3)[C@@H](O)C[C@@H]1CC[C@@H]1[C@@H]2CC[C@]2(C)[C@@H](O)CC[C@@H]12 | 100 | 1400 | 3000 | 200 | 2.7 | 70 | 123
C[C@]12C[C@H](N3CCN(C(=O)[C@@H]4CCCN4C(=O)c4ccc5ccccc5c4)CC3)[C@@H](O)C[C@@H]1CC[C@@H]1[C@@H]2CC[C@@]2(C)[C@H]1CC[C@]2(C)O | 1200 | 4700 | – | 2000 | 32 | > 10000 | 122
CO[C@H]1CC[C@H]2[C@@H]3CC[C@H]4C[C@H](O)[C@@H](N5CCN(C(=O)[C@@H]6CCCN6C(=O)c6ccc7ccccc7c6)CC5)C[C@]4(C)[C@H]3CC[C@]12C | 4500 | 4500 | – | 5000 | 7.6 | 7000 | 33.3
C[C@]12C[C@H](N3CCN(C(=O)[C@@H]4CCCN4C(=O)c4cccc5ccccc45)CC3)[C@@H](O)C[C@@H]1CC[C@@H]1[C@@H]2CC[C@]2(C)[C@@H](O)CC[C@@H]12 | 4800 | 3700 | – | 5000 | – | 300 | –
C#C[C@]1(O)CC[C@H]2[C@@H]3CC[C@H]4C[C@H](O)[C@@H](N5CCN(C(=O)[C@@H]6CCCN6C(=O)c6cccc7ccccc67)CC5)C[C@]4(C)[C@H]3CC[C@@]21C | 2300 | 7000 | – | 8000 | – | 12000 | –
C[C@]12C[C@H](N3CCN(C(=O)[C@@H]4CCCN4C(=O)c4cccc5ccccc45)CC3)[C@@H](O)C[C@@H]1CC[C@@H]1[C@@H]2CC[C@]2(C)C(=O)CC[C@@H]12 | 8000 | 8500 | – | 7000 | – | 10000 | –
C[C@]12C[C@H](N3CCN(C(=O)[C@@H]4CCCN4C(=O)c4cnc5ccccc5c4)CC3)[C@@H](O)C[C@@H]1CC[C@@H]1[C@@H]2CC[C@]2(C)[C@@H](O)CC[C@@H]12 | 1200 | 4000 | – | 7000 | 2.3 | > 10000 | 163
C[C@]12C[C@H](N3CCN(C(=O)[C@@H]4CCCN4C(=O)c4cc5ccccc5[n+]([O-])c4)CC3)[C@@H](O)C[C@@H]1CC[C@@H]1[C@@H]2CC[C@]2(C)[C@@H](O)CC[C@@H]12 | 900 | 800 | – | 1000 | 2.9 | > 10000 | 158
C[C@]12C[C@H](N3CCN(C(=O)[C@@H]4CCCN4C(=O)c4ccc5ccccc5n4)CC3)[C@@H](O)C[C@@H]1CC[C@@H]1[C@@H]2CC[C@]2(C)C(=O)CC[C@@H]12 | 1000 | 600 | – | 700 | 0.3 | 800 | 188
C[C@]12C[C@H](N3CCN(C(=O)[C@@H]4CCCN4C(=O)C4CCCCC4)CC3)[C@@H](O)C[C@@H]1CC[C@@H]1[C@@H]2CC[C@]2(C)[C@@H](O)CC[C@@H]12 | – | – | 2700 | – | – | – | –
C[C@]12CC[C@@H](O)C[C@@H]1CC[C@@H]1[C@@H]2CC[C@]2(C)[C@@H](O)CC[C@@H]12 [ANDROSTANDIOL] | – | – | > 10000 | – | – | – | –
COc1cccc2c1C(=O)c1c(O)c3c(c(O)c1C2=O)C[C@@](O)(C(=O)CO)C[C@@H]3O[C@H]1C[C@H](N)[C@H](O)[C@H](C)O1 [DOXORUBICIN] | > 10000 | 700 | 20 | 700 | – | 200 | –
